{"source": "paper PMC8073907", "about": "“Peptide targeting of lysophosphatidylinositol-sensing GPR55 for osteoclastogenesis tuning” (Cell Communication and Signaling : CCS, 2021)", "key": {"RAW264.7 cells": {"tested_on": "RAW264.7 cells", "assay": "Filopodium formation / actin morphology in siRNA-interfered RAW264.7 cells (confocal microscopy)", "format": "cell-based, murine", "details": "10 µM soybean LPI", "protocol": "For transient interference of Gpr55, RAW264.7 cells were plated at 6 × 10^5 cells/well in six-well plates in growth medium without antibiotics. Twenty-four hours later, the cells were transfected with 250 pmol/well non-targeting small-interfering (si)RNAs (si-NT; siGENOME siRNA Pool #2; D-001206-14; Dharmacon, Chicago, IL, USA) or Gpr55-specific siRNAs (si-GPR55; siGENOME mouse GPR55 SMART pool; M-043590-01; Dharmacon) using Lipofectamine LTX and Plus Reagent, according to the manufacturer instructions. Twenty-four hours later, the cells were plated for the different assays or for RNA extraction. The efficiency of interference was monitored by real-time PCR after 72 h of interference, using the primers listed in the Additional file 1: Table S1. β2-microglobulin was followed as a housekeeping gene.\nTwenty-four hours after plating the RAW264.7 cells at a density of 1.2 × 10^6 cells/well in six-well plates, or 2.5 × 10^5 cells/well in 24-well plates on coverslips, the cells were serum deprived for 2 h and then stimulated while adhered, with LPI in the assay buffer (0.1% faf-BSA, 20 mM HEPES in HBSS^++). […] Finally, the fixed cells were stained with 33 nM Alexa546-labelled phalloidin for 1 h at room temperature, washed three times (10 min each) with cytoskeleton buffer, suspended in PBS with 3% BSA, and analysed by FACS (FACSCalibur or FACSAria III; Becton Dickinson, Franklin Lakes, NJ). […]"}, "ssGPR55-Q87A": {"tested_on": "ssGPR55-Q87A", "assay": "GPR55-internalisation assay, Q87A mutant (FACS)", "format": "cell-based, human", "details": "HeLa, 10 µM soybean LPI, 15 min, three independent experiments", "from_the_text": "The construct of haemagglutinin (HA)-tagged human GPR55 in pcDNA3 (HA-GPR55) was a gift from Prof. K. Mackie, Indiana University, Bloomington, IN, USA [39], while the construct ss-3 × HA-GPR55 in pcDNA3.1 (ssGPR55) with a triple HA tag at the N-terminus and an optimised signal sequence (ss, derived from amino acids 1–33 of the human growth hormone: […]) for efficient surface expression was from Prof. A. Irving, Dundee University, UK [40]. For both constructs, mutations were introduced by site-directed mutagenesis using QuickChange kits (Stratagene, La Jolla, CA, USA), according to the manufacturer instructions. The primers for the K80A mutation were 5′-[…]-3′ and 5′-[…]-3′ (Tm, 70.6 °C), and for Q87A were 5′-[…]-3′ and 5′-[…]-3′ (Tm, 73.1 °C).\nHeLa cells were plated at 1.5 × 10^5 cells/well in six-well plates in their growth medium without antibiotics. […]\nFor the GPR55-internalisation assay, after stimulation, the HeLa cells were washed twice with cold HBSS^++, stained while adhered with the monoclonal anti-HA antibody (1:1000) in PBS plus 3% BSA for 1 h on ice, washed three times with cold PBS, incubated with the Alexa488-tagged anti-mouse antibody (1:800) in PBS plus 3% BSA for 45 min on ice. […] The collected cells were centrifuged at 300×g, suspended in PBS plus 3% BSA, and analysed by FACS."}}}
{"substance": "lysophosphatidylinositol [LPI]", "values": [{"measurement": "actin cytoskeleton reorganisation, si-GPR55", "setting": "RAW264.7 cells; si-GPR55 cells", "value": "no significant signs of actin cytoskeleton reorganisation"}, {"measurement": "numbers of filopodia, si-NT", "setting": "RAW264.7 cells; si-NT cells", "value": "time-dependent increase in the numbers of filopodia"}, {"measurement": "reduction of cell-surface level of receptor", "setting": "ssGPR55-Q87A", "value": 15, "unit": "%"}]}
